According to the supplement of paper PMC13380429:

Legend:
Details in all cases: 72 h
Vero E6 [1] = experiment: relative viability EC50 (midpoint between 100% and the lowest measured viability); higher = less toxic
Caco-2 [2] = experiment: as above
U2OS [3] = experiment: as above
HepG2 [4] = experiment: as above
Calu-3 [5] = experiment: as above
Vero E6 [6] = experiment: drug sensitivity score (DSS) for viability; higher = more toxic; extreme values may be limits of the assay
Caco-2 [7] = experiment: as above
U2OS [8] = experiment: as above
HepG2 [9] = experiment: as above
Calu-3 [10] = experiment: as above
Vero E6 [11] = experiment: cell viability relative to DMSO; higher = less toxic
Caco-2 [12] = experiment: as above
U2OS [13] = experiment: as above
HepG2 [14] = experiment: as above
Calu-3 [15] = experiment: as above

Row | SMILES | relative viability EC50 (Vero E6 [1]) | relative viability EC50 (Caco-2 [2]) | relative viability EC50 (U2OS [3]) | relative viability EC50 (HepG2 [4]) | relative viability EC50 (Calu-3 [5]) | drug sensitivity score (Vero E6 [6]) | drug sensitivity score (Caco-2 [7]) | drug sensitivity score (U2OS [8]) | drug sensitivity score (HepG2 [9]) | drug sensitivity score (Calu-3 [10]) | cell viability (Vero E6 [11]; 1 nM) | cell viability (Vero E6 [11]; 10 nM) | cell viability (Vero E6 [11]; 100 nM) | cell viability (Vero E6 [11]; 1000 nM) | cell viability (Vero E6 [11]; 10000 nM) | cell viability (Caco-2 [12]; 1 nM) | cell viability (Caco-2 [12]; 10 nM) | cell viability (Caco-2 [12]; 100 nM) | cell viability (Caco-2 [12]; 1000 nM) | cell viability (Caco-2 [12]; 10000 nM) | cell viability (U2OS [13]; 1 nM) | cell viability (U2OS [13]; 10 nM) | cell viability (U2OS [13]; 100 nM) | cell viability (U2OS [13]; 1000 nM) | cell viability (U2OS [13]; 10000 nM) | cell viability (HepG2 [14]; 1 nM) | cell viability (HepG2 [14]; 10 nM) | cell viability (HepG2 [14]; 100 nM) | cell viability (HepG2 [14]; 1000 nM) | cell viability (HepG2 [14]; 10000 nM) | cell viability (Calu-3 [15]; 1 nM) | cell viability (Calu-3 [15]; 10 nM) | cell viability (Calu-3 [15]; 100 nM) | cell viability (Calu-3 [15]; 1000 nM) | cell viability (Calu-3 [15]; 10000 nM)
1 | N[C@@H]1CCCN(c2c(/C=C3\SC(=O)NC3=O)cccc2-c2ccccc2)C1 [AZD1208] | > 10 µM | > 10 µM | > 10 µM | > 10 µM | > 10 µM | 0 | 0 | 0 | 1.2 | 0 | 98.3% | 99.9% | 87.9% | 91.8% | 96.2% | 103% | 97.5% | 109% | 95.3% | 98.6% | 97.1% | 88.9% | 93.3% | 95.6% | 96.7% | 92.6% | 104% | 93.5% | 89.8% | 80% | 105% | 94.4% | 92.4% | 86.6% | 99.8%
2 | NCC(=O)O [AZD4282] | > 10 µM | > 10 µM | > 10 µM | > 10 µM | > 10 µM | 0 | 0 | 0 | 0 | 0 | 102% | 103% | 99.3% | 104% | 100% | 99% | 104% | 86.4% | 99.7% | 103% | 93.7% | 96.7% | 100% | 98.9% | 102% | 95.3% | 96% | 96.6% | 102% | 101% | 86.3% | 101% | 96.3% | 102% | 97.3%
3 | Cc1ncc(-c2ccnc(Nc3ccc(S(C)(=O)=O)cc3)n2)n1C(C)C [AZD5438] | 2.36 µM | 2.84 µM | 3.29 µM | 1.58 µM | 3.65 µM | 6.2 | 4.4 | 4.8 | 8.7 | 2.9 | 97.6% | 102% | 96.4% | 91.6% | 12.6% | 97.1% | 97.8% | 104% | 96.8% | 27.7% | 104% | 105% | 108% | 102% | 10.1% | 100% | 95% | 106% | 77.3% | 6.7% | 98.9% | 97.1% | 104% | 106% | 38.1%
4 | COc1cc(C)[nH]c(=O)c1CNC(=O)c1c(C)n([C@H](C)C2CCOCC2)c2ccccc12 [CPI-360] | > 10 µM | > 10 µM | > 10 µM | > 10 µM | > 10 µM | 0 | 0 | 0 | 0 | 0 | 108% | 102% | 108% | 96.3% | 104% | 107% | 106% | 99.2% | 107% | 95.7% | 99.7% | 101% | 100% | 102% | 101% | 107% | 97.6% | 96.7% | 90.7% | 92.2% | 101% | 113% | 101% | 105% | 95.7%
5 | C#Cc1cccc(Nc2ncnc3cc(OC)c(OCCCCCCC(=O)NO)cc23)c1 [CUDC-101] | 1.67 µM | 1.55 µM | 1.41 µM | 0.548 µM | 0.419 µM | 8.2 | 5.4 | 9.6 | 14.7 | 14.1 | 98.6% | 96% | 94.6% | 80.2% | 8.4% | 97% | 89.7% | 90.6% | 81.8% | 39.6% | 97.7% | 99.6% | 93.4% | 68.5% | 2% | 96.3% | 110% | 94.9% | 25.7% | 0.1% | 96.7% | 98.8% | 81.5% | 37.2% | 9%
6 | COC(=O)c1sccc1S(=O)(=O)Nc1ccc(Nc2ccccc2)cc1OC [GSK0660] | > 10 µM | > 10 µM | > 10 µM | > 10 µM | > 10 µM | 0 | 0 | 0 | 0 | 0 | 91.9% | 104% | 94.8% | 102% | 104% | 96.8% | 86.2% | 104% | 105% | 98.9% | 101% | 95.4% | 98.8% | 95.5% | 93.5% | 91.4% | 109% | 102% | 101% | 92.6% | 106% | 102% | 101% | 93.1% | 102%
7 | CS(=O)(=O)N(Cc1ccco1)C[C@@H](O)Cn1c2ccccc2c2ccccc21 [KL-001] | > 10 µM | > 10 µM | > 10 µM | > 10 µM | > 10 µM | 0 | 0 | 0 | 0 | 0 | 99% | 101% | 97.6% | 100% | 98% | 95.6% | 98.5% | 102% | 94.1% | 94.6% | 98.3% | 98.4% | 99% | 93.7% | 90% | 98.9% | 104% | 97.2% | 104% | 106% | 105% | 93.2% | 101% | 115% | 110%
8 | NC(=O)C[C@H](N)C(=O)O [L-asparagine] | > 10 µM | > 10 µM | > 10 µM | > 10 µM | > 10 µM | 0.1 | 0 | 0 | 0 | 0 | 102% | 112% | 99.2% | 101% | 86.8% | 103% | 104% | 92.1% | 106% | 105% | 96.5% | 95.4% | 98.6% | 98.7% | 102% | 92.7% | 116% | 92.3% | 105% | 93.7% | 95.2% | 95.6% | 93.1% | 96.1% | 98%
9 | C[N+](C)(C)[C@@H](Cc1c[nH]c(=S)[nH]1)C(=O)O [L-ergothioneine] | > 10 µM | > 10 µM | > 10 µM | > 10 µM | > 10 µM | 0 | 0 | 0 | 0.7 | 0 | 94.3% | 94.9% | 96.5% | 109% | 106% | 100% | 101% | 114% | 105% | 97.3% | 96% | 94.1% | 98.2% | 92.4% | 95.6% | 83.4% | 88.9% | 102% | 98.8% | 80.4% | 97.2% | 97.7% | 95.2% | 108% | 95.4%
10 | N[C@@H](Cn1oc(=O)[nH]c1=O)C(=O)O [L-quisqualic-acid] | > 10 µM | > 10 µM | > 10 µM | > 10 µM | > 10 µM | 0 | 0 | 0 | 0 | 0 | 101% | 100% | 98.7% | 96.8% | 102% | 99.1% | 94% | 91.9% | 97% | 97.5% | 99.2% | 104% | 101% | 101% | 95.7% | 89.7% | 99.1% | 91% | 89.8% | 107% | 87.9% | 96.2% | 100% | 93.1% | 94.9%
11 | Fc1ccc(-c2c3cccc(C(F)(F)F)c3nn2Cc2ccc(F)cc2Cl)cc1 [LXR-623] | > 10 µM | > 10 µM | > 10 µM | > 10 µM | > 10 µM | 0 | 0.2 | 0 | 1.9 | 0 | 105% | 105% | 102% | 98% | 98.6% | 102% | 92% | 94.5% | 96.5% | 83.2% | 102% | 98.2% | 102% | 97.1% | 97.4% | 95.5% | 94.4% | 87.9% | 90.2% | 77.2% | 101% | 97.3% | 97% | 93.7% | 91.2%
12 | Cc1ccc(S(=O)(=O)n2c(N)nc3ccccc32)cc1 [ML130] | > 10 µM | > 10 µM | > 10 µM | > 10 µM | > 10 µM | 0 | 0 | 0 | 0 | 0 | 103% | 108% | 103% | 109% | 96.2% | 107% | 97% | 107% | 101% | 90.5% | 104% | 108% | 105% | 103% | 97.3% | 98% | 107% | 111% | 100% | 104% | 103% | 89.2% | 99.5% | 101% | 103%
13 | NC(=O)C1=CN([C@@H]2O[C@H](COP(=O)(O)OP(=O)(O)OC[C@H]3O[C@@H](n4cnc5c(N)ncnc54)[C@H](OP(=O)(O)O)[C@@H]3O)[C@@H](O)[C@H]2O)C=CC1 [NADPH] | > 10 µM | > 10 µM | > 10 µM | > 10 µM | > 10 µM | 0 | 0 | 0 | 0 | 0.1 | 105% | 86% | 103% | 94.6% | 99.5% | 86.7% | 92.7% | 88.4% | 93% | 91.9% | 94.1% | 101% | 98.4% | 102% | 98.1% | 101% | 104% | 97.7% | 86.2% | 104% | 90.8% | 85.1% | 87.7% | 91% | 101%
14 | c1ccc(-c2nc(CN3CCN(c4ncccn4)CC3)c[nH]2)cc1 [NGD-94-1] | > 10 µM | > 10 µM | > 10 µM | > 10 µM | > 10 µM | 0 | 0 | 0 | 0 | 0 | 93.2% | 97.5% | 91.5% | 92.9% | 105% | 99.7% | 106% | 91.9% | 102% | 111% | 100% | 95.5% | 98.4% | 92.5% | 109% | 98.2% | 97.3% | 94.1% | 101% | 105% | 79.7% | 93.8% | 85.5% | 95.7% | 108%
